Experimental data reported in the NIST ThermoML archive (doi:10.1016/j.jct.2012.08.030).
± gives the expanded uncertainty stated by the source.

Tests used:
[1] = xn = mol fraction of the nth substance listed; conditions: 101.3 kPa, Liquid; for speed of sound: Sing-around technique in a fixed-path interferometer; for mass density: Vibrating tube method
[2] = refractive index (Na D-line) (dimensionless); xn = mol fraction of the nth substance listed; conditions: 101.3 kPa, Liquid, Standard Abbe refractometry

CCCCn1cc[n+](C)c1.COS(=O)(=O)[O-] [1-butyl-3-methylimidazolium methyl sulfate] + CCCCO
Conditions	mass density, [1] [kg/m3]	refractive index, [2]	speed of sound, [1] [m/s]
298.15 K, x1 = 0.0425	843.506 ± 0.31	1.40525 ± 0.00038	1261.4 ± 1.3
298.15 K, x1 = 0.0922	882.293 ± 0.33	1.41307 ± 0.00039	1285.1 ± 1.4
298.15 K, x1 = 0.1929	948.953 ± 0.41	1.42652 ± 0.00042	1333.2 ± 1.5
298.15 K, x1 = 0.2926	1002.76 ± 0.55	1.43736 ± 0.00044	1379.5 ± 1.7
298.15 K, x1 = 0.3915	1047.2 ± 0.75	1.44629 ± 0.00047	1424.2 ± 1.9
298.15 K, x1 = 0.4981	1087.51 ± 1	1.45433 ± 0.00051	1471 ± 2.1
298.15 K, x1 = 0.5997	1120.12 ± 1.3	1.4608 ± 0.00054	1513.5 ± 2.3
298.15 K, x1 = 0.7996	1172.03 ± 2	1.47095 ± 0.0006	1589.4 ± 2.7
298.15 K, x1 = 1	1212.06 ± 2.8	1.47824 ± 0.00068	1654.6 ± 3.1
303.15 K, x1 = 0.0425	839.735 ± 0.31	1.40335 ± 0.00038	1245.6 ± 1.3
303.15 K, x1 = 0.0922	878.554 ± 0.33	1.41133 ± 0.00039	1270 ± 1.4
303.15 K, x1 = 0.1929	945.272 ± 0.41	1.42489 ± 0.00042	1318.8 ± 1.5
303.15 K, x1 = 0.2926	999.143 ± 0.54	1.43578 ± 0.00044	1365.8 ± 1.7
303.15 K, x1 = 0.3915	1043.64 ± 0.75	1.44477 ± 0.00047	1411 ± 1.9
303.15 K, x1 = 0.4981	1084.01 ± 1	1.45286 ± 0.00051	1458.1 ± 2.1
303.15 K, x1 = 0.5997	1116.66 ± 1.3	1.45937 ± 0.00054	1500.9 ± 2.3
303.15 K, x1 = 0.7996	1168.59 ± 2	1.46959 ± 0.0006	1577.1 ± 2.7
303.15 K, x1 = 1	1208.7 ± 2.8	1.47704 ± 0.00068	1642.2 ± 3.1
308.15 K, x1 = 0.0425	835.931 ± 0.31	1.40141 ± 0.00038	1229.6 ± 1.3
308.15 K, x1 = 0.0922	874.794 ± 0.32	1.40946 ± 0.00039	1254.6 ± 1.4
308.15 K, x1 = 0.1929	941.58 ± 0.41	1.42315 ± 0.00042	1304.3 ± 1.5
308.15 K, x1 = 0.2926	995.525 ± 0.54	1.43415 ± 0.00044	1351.8 ± 1.7
308.15 K, x1 = 0.3915	1040.09 ± 0.74	1.44321 ± 0.00047	1397.5 ± 1.9
308.15 K, x1 = 0.4981	1080.52 ± 1	1.45136 ± 0.00051	1445.1 ± 2.1
308.15 K, x1 = 0.5997	1113.21 ± 1.3	1.45792 ± 0.00054	1488.2 ± 2.3
308.15 K, x1 = 0.7996	1165.14 ± 2	1.46821 ± 0.0006	1564.7 ± 2.7
308.15 K, x1 = 1	1205.35 ± 2.8	1.47577 ± 0.00068	1630 ± 3.1
313.15 K, x1 = 0.0425	832.1 ± 0.31	1.39946 ± 0.00038	1213.7 ± 1.2
313.15 K, x1 = 0.0922	871.02 ± 0.33	1.40762 ± 0.00039	1239.3 ± 1.4
313.15 K, x1 = 0.1929	937.88 ± 0.41	1.42144 ± 0.00042	1289.8 ± 1.5
313.15 K, x1 = 0.2926	991.896 ± 0.54	1.43253 ± 0.00044	1338 ± 1.7
313.15 K, x1 = 0.3915	1036.54 ± 0.74	1.44166 ± 0.00047	1384.2 ± 1.9
313.15 K, x1 = 0.4981	1077.03 ± 1	1.44987 ± 0.00051	1432.3 ± 2.1
313.15 K, x1 = 0.5997	1109.78 ± 1.3	1.45646 ± 0.00054	1475.7 ± 2.3
313.15 K, x1 = 0.7996	1161.71 ± 2	1.46682 ± 0.0006	1552.6 ± 2.7
313.15 K, x1 = 1	1202.01 ± 2.8	1.47443 ± 0.00068	1617.9 ± 3.1

CCCCn1cc[n+](C)c1.COS(=O)(=O)[O-] [1-butyl-3-methylimidazolium methyl sulfate] + CCCO
Conditions	mass density, [1] [kg/m3]	refractive index, [2]	speed of sound, [1] [m/s]
298.15 K, x1 = 0.0482	852.432 ± 0.25	1.39591 ± 0.00033	1242.8 ± 0.89
298.15 K, x1 = 0.0965	896.455 ± 0.22	1.40632 ± 0.00034	1276 ± 0.99
298.15 K, x1 = 0.1937	967.583 ± 0.26	1.42298 ± 0.00037	1338.1 ± 1.2
298.15 K, x1 = 0.2929	1023.11 ± 0.37	1.43588 ± 0.0004	1394.2 ± 1.4
298.15 K, x1 = 0.3903	1066.53 ± 0.56	1.44583 ± 0.00043	1443.9 ± 1.6
298.15 K, x1 = 0.4958	1104.3 ± 0.81	1.45448 ± 0.00047	1491.7 ± 1.9
298.15 K, x1 = 0.59	1132.04 ± 1.1	1.46078 ± 0.0005	1529.8 ± 2.1
298.15 K, x1 = 0.6907	1156.89 ± 1.4	1.46636 ± 0.00054	1566.3 ± 2.4
298.15 K, x1 = 0.7981	1179.34 ± 1.9	1.47134 ± 0.00059	1601.1 ± 2.6
298.15 K, x1 = 0.8932	1196.47 ± 2.3	1.47515 ± 0.00063	1629 ± 2.8
298.15 K, x1 = 0.951	1205.24 ± 2.6	1.4776 ± 0.00065	1643.1 ± 3
298.15 K, x1 = 1	1212.06 ± 2.8	1.47824 ± 0.00068	1654.6 ± 3.1
303.15 K, x1 = 0.0482	848.503 ± 0.25	1.39407 ± 0.00033	1227 ± 0.89
303.15 K, x1 = 0.0965	892.596 ± 0.22	1.40459 ± 0.00034	–
303.15 K, x1 = 0.1937	963.817 ± 0.26	1.42138 ± 0.00037	1323.8 ± 1.2
303.15 K, x1 = 0.2929	1019.43 ± 0.37	1.43433 ± 0.0004	1380.5 ± 1.4
303.15 K, x1 = 0.3903	1062.93 ± 0.55	1.44433 ± 0.00043	1430.6 ± 1.6
303.15 K, x1 = 0.4958	1100.77 ± 0.81	1.45302 ± 0.00047	1478.8 ± 1.9
303.15 K, x1 = 0.59	1128.56 ± 1.1	1.45937 ± 0.0005	1517.2 ± 2.1
303.15 K, x1 = 0.6907	1153.44 ± 1.4	1.46499 ± 0.00054	1553.9 ± 2.4
303.15 K, x1 = 0.7981	1175.92 ± 1.9	1.46997 ± 0.00059	1588.9 ± 2.6
303.15 K, x1 = 0.8932	1192.93 ± 2.3	1.47378 ± 0.00063	1616.9 ± 2.8
303.15 K, x1 = 0.951	1201.87 ± 2.6	1.47628 ± 0.00065	1630.9 ± 3
303.15 K, x1 = 1	1208.7 ± 2.8	1.47704 ± 0.00068	1642.2 ± 3.1
308.15 K, x1 = 0.0482	844.545 ± 0.25	1.39212 ± 0.00033	1211.1 ± 0.88
308.15 K, x1 = 0.0965	888.716 ± 0.22	1.40276 ± 0.00034	1245.5 ± 0.98
308.15 K, x1 = 0.1937	960.044 ± 0.26	1.41966 ± 0.00037	1309.3 ± 1.2
308.15 K, x1 = 0.2929	1015.75 ± 0.36	1.43273 ± 0.0004	1366.6 ± 1.4
308.15 K, x1 = 0.3903	1059.34 ± 0.55	1.4428 ± 0.00043	1417.3 ± 1.6
308.15 K, x1 = 0.4958	1097.25 ± 0.8	1.45154 ± 0.00047	1465.8 ± 1.9
308.15 K, x1 = 0.59	1125.08 ± 1.1	1.45793 ± 0.0005	1504.5 ± 2.1
308.15 K, x1 = 0.6907	1150 ± 1.4	1.46358 ± 0.00054	1541.4 ± 2.4
308.15 K, x1 = 0.7981	1172.52 ± 1.8	1.46856 ± 0.00059	1576.5 ± 2.6
308.15 K, x1 = 0.8932	1189.33 ± 2.3	1.47238 ± 0.00063	1604.7 ± 2.8
308.15 K, x1 = 0.951	1198.5 ± 2.6	1.47491 ± 0.00065	1618.7 ± 3
308.15 K, x1 = 1	1205.35 ± 2.8	1.47577 ± 0.00068	1630 ± 3.1
313.15 K, x1 = 0.0482	840.564 ± 0.25	1.39019 ± 0.00033	1195.2 ± 0.88
313.15 K, x1 = 0.0965	884.815 ± 0.23	1.4009 ± 0.00034	1230.2 ± 0.98
313.15 K, x1 = 0.1937	956.26 ± 0.26	1.41794 ± 0.00037	1294.9 ± 1.2
313.15 K, x1 = 0.2929	1012.08 ± 0.36	1.43111 ± 0.0004	1352.8 ± 1.4
313.15 K, x1 = 0.3903	1055.75 ± 0.54	1.44126 ± 0.00043	1404 ± 1.6
313.15 K, x1 = 0.4958	1093.74 ± 0.8	1.45008 ± 0.00047	1453 ± 1.9
313.15 K, x1 = 0.59	1121.62 ± 1.1	1.45649 ± 0.0005	1492 ± 2.1
313.15 K, x1 = 0.6907	1146.58 ± 1.4	1.46215 ± 0.00054	1529.1 ± 2.4
313.15 K, x1 = 0.7981	1169.13 ± 1.8	1.46715 ± 0.00059	1564.4 ± 2.6
313.15 K, x1 = 0.8932	1185.78 ± 2.3	1.4709 ± 0.00063	1592.5 ± 2.8
313.15 K, x1 = 0.951	1195.15 ± 2.5	1.47354 ± 0.00065	1606.6 ± 3
313.15 K, x1 = 1	1202.01 ± 2.8	1.47443 ± 0.00068	1617.9 ± 3.1
